Experimental data taken from patent US11478440B2, “Combination of Elafibranor or derivatives thereof with an anti-NASH, anti-fibrotic or anti-cholestatic agent” (GENFIT, priority 2017, dated 2022).
pIC50: −log10 of the molar value.

What was measured:
NASH = conditions: over 800 patients and healthy volunteers; cited from earlier work
TGFβ1-induced hHSC = test: α-SMA ELISA in TGFβ1-induced human primary hepatic stellate cells; assay type: cell-based
Method: The human primary hepatic stellate cells (hHSC) (Innoprot) were cultured in STeCM medium (ScienCell cat #5301) that was supplemented with 2% fetal bovine serum (FBS, ScienCell cat #0010), 1% penicillin/streptomycin (ScienCell cat #0503) and stellate cell growth supplement (SteCGS; ScienCell cat #5352). Cell culture flasks were coated with Poly-L Lysine (Sigma cat #P4707) for a better adherence.
For these experiments, a checkerboard matrix was generated. ELA and component (ii) stocks were serially diluted in DMSO in 5-points series in a row (ELA) and a 11-points series in a column (component (ii)) of a 96-well plate. Subsequently, the 5×11 combination matrix was generated by 1:1 mixing of all single agent concentrations. The test concentrations for each compound were chosen based on the respective IC50 of each compound as single agent obtained by measuring α-SMA content in the HSC model stimulated with TGF-β1.
The human primary hepatic stellate cells (hHSC) (Innoprot) were cultured under standard conditions, as described above. The cells were subsequently plated at a density of 2×10^4 cells/well into 96-well plates for the measure of α-SMA by ELISA. The next day, cell-culture medium was removed, and cells were washed with PBS (Invitrogen cat #14190). hHSC were deprived for 24 hours in serum-free and SteCGS-free medium. For the treatments with ELA, component (ii) and the respective ELA/component (ii) combinations, the serum-deprived hHSC were preincubated for 1 hour with the compounds followed by addition of the profibrogenic stimuli TGF-β1 (PeproTech cat #100-21, 1 ng/mL) in serum-free and SteCGS-free medium for an additional 48 hour period.
The level of α-SMA was measured using a Sandwich ELISA. Briefly, the wells of an ELISA plate were first coated with the capture antibody (mouse monoclonal anti-ACTA2, Abnova) at 4° C. overnight. After 3 washes in PBS+0.2% Tween 20, a blocking solution consisting of PBS+0.2% BSA was added for one hour followed by another washing cycle. The cell lysates were transferred into the wells for binding to the capture antibody for a period of 2 h at room temperature. After the washing procedure, the detection antibody (biotinylated mouse monoclonal anti-ACTA2, Abnova) was added for 2 hours at room temperature followed by 3 washes. For the detection, an HRP-conjugated Streptavidin (R&D Systems cat #DY998) was first applied for 30 min at room temperature. After washing, the HRP substrate TMB (BD, #555214) was added and incubated for 7 min at room temperature in the dark. Upon oxidation, TMB forms a water-soluble blue reaction product that becomes yellow with addition of sulfuric acid (solution stop), enabling accurate measurement of the intensity at 450 nm using a spectrophotometer. The developed color is directly proportional to the amount of α-SMA present in the lysate.
The human primary hepatic stellate cells (hHSC) (Innoprot) were cultured in STeCM medium (ScienCell cat #5301) that was supplemented with 2% fetal bovine serum (FBS, ScienCell cat #0010), 1% penicillin/streptomycin (ScienCell cat #0503) and stellate cell growth supplement (SteCGS; ScienCell cat #5352). Cell-culture flasks were coated with Poly-L Lysine (Sigma cat #P4707) for a better adherence.
For these experiments, a checkerboard matrix was generated. CVC and Elafibranor stocks were serially diluted in DMSO in a 5-points series in a row (Elafibranor) and a 6-points series in a column (Cenicriviroc) of a 96-well plate. Subsequently, the […] combination matrix was generated by 1:1 mixing of all single agent concentrations. The test concentrations for each compound were chosen based on the respective IC50 of each compound as single agent obtained by measuring α-SMA content in the HSC model stimulated with TGF-β1.
The human primary hepatic stellate cells (hHSC) (Innoprot) were cultured under standard conditions, as described above. […]

[1] = system: fibrosing NASH-model of rats fed a CDAA+1% cholesterol diet; test: Chronic CDAA+1% cholesterol rat model: hepatic gene expression (qPCR); assay type: in vivo, Wistar rats; conditions: liver; GFT505 3 mg/kg/d, OCA 10 mg/kg/d, alone or combined; 12 weeks
Method: The preventive effects of Elafibranor alone, OCA alone and the combination of both were assessed in a fibrosing NASH-model of rats fed a CDAA+1% cholesterol diet. 150-175 g male Wistar rats were fed a control (CSAA) diet, CDAA+1% cholesterol diet, or CDAA+1% cholesterol diet supplemented with Elafibranor 1, 3 and 10 mg/kg/day, OCA 10 and 30 mg/kg/day or combined drugs (Elafibranor 1, 3 and 10 mg/kg/day combined to OCA 10 mg/kg/day) for 12 weeks.
The body weight and the food intake were monitored twice per week. On the last day of treatment, rats were sacrificed after a 6 h fasting period. The liver was rapidly excised for biochemical and histological studies.
Total RNA was isolated from rat livers using RNeasy Mini Kit (Qiagen) following manufacturer's instructions. Total RNA were reverse transcribed into cDNA using M-MLV RT (Moloney Murine Leukemia Virus Reverse Transcriptase) (Invitrogen cat #28025) in 1×RT buffer (Invitrogen), 0.5 mM DTT (Invitrogen), 0.18 mM dNTPs (Promega), 200 ng pdN6 (Amersham) and 30 U of RNase inhibitor (Promega).
Quantitative PCR was then carried out using the CFX96 TOUCH Real-Time PCR Detection System (Biorad). Briefly, the PCR reactions were performed in 96-WP format in 25 μl of total volume containing 1 μL of reverse transcription reaction, 0.5 μL of reverse and forward primers (10 pmol each), and 12.5 μl of 2×iQ SYBR Green Supermix (BioRad), using the following primer sequences:
Expression levels were normalized using the expression of RPLP0 gene as a housekeeping gene of reference in samples. For each gene, the standard curves were drawn by selecting the best points (at least three points) in order to have PCR reaction efficiency close to 100% and a correlation coefficient close to 1. Expression levels were determined using the standard curve equation for both the housekeeping gene and the target gene (taking into account the specific PCR efficiency of each target gene).

1-[4-methylthiophenyl]-3-[3,5-dimethyl-4-carboxydimethylmethyloxyphenyl]prop-2-en-1-one [Elafibranor]
clinical properties for NASH (liver markers, insulin sensitivity, plasma lipids, anti-inflammatory) (NASH): has demonstrated beneficial properties for NASH | α-SMA inhibition over TGFβ1 control (TGFβ1-induced hHSC; 5 μM of Elafibranor alone): 40% | pIC50 (TGFβ1-induced hHSC; TGFβ1 1 ng/ml, 48 h, single agent): 5.50 | α-SMA marker reduction (TGFβ1-induced hHSC; TGFβ1 1 ng/ml, 48 h, single agent, maximal reduction): 80% | antifibrotic activity (α-SMA), single agent (TGFβ1-induced hHSC; TGFβ1-activated hHSC, dose range): has an antifibrotic activity | CCR5 mRNA level (marker of inflammation), percentage over the untreated CDAA + 1% cholesterol rats [1]: 103% ± 51% | TGFβ1 mRNA level, percentage over the untreated CDAA + 1% cholesterol rats [1]: 94% ± 20% | TIMP1 mRNA level, percentage over the untreated CDAA + 1% cholesterol rats [1]: 78% ± 23% | αSMA mRNA level, percentage over the untreated CDAA + 1% cholesterol rats [1]: 66% ± 27%
